The values below come from patent US20100137324A1, “RHO-KINASE INHIBITORS” (priority 2001, published 2010).

Broadly, the melting point is the temperature, or range, at which the solid turns liquid. In turn, `O=C(Nc1ccncc1)c1nc(Nc2ccc3[nH]ncc3c2)c2ccccc2n1` [Example 131, 4-(1H-indazol-5-ylamino)-N-(4-pyridinyl)-2-quinazolinecarboxamide] showed a melting point of 295 to 298 °C.

Regarding `COc1ccc(NC(=O)c2nc(Nc3ccc4[nH]ncc4c3)c3ccccc3n2)cc1` [Example 132, 4-(1H-indazol-5-ylamino)-N-(4-methoxyphenyl)-2-quinazolinecarboxamide], the melting point is 210 to 213 °C.

The molecule `O=C(NC1CCCCC1)c1nc(Nc2ccc3[nH]ncc3c2)c2ccccc2n1` [Example 133, N-cyclohexyl-4-(1H-indazol-5-ylamino)-2-quinazolinecarboxamide] had a melting point of 215 to 217 °C.

In the case of `O=C(NC1CCCC1)c1nc(Nc2ccc3[nH]ncc3c2)c2ccccc2n1` [Example 134, N-cyclopentyl-4-(1H-indazol-5-ylamino)-2-quinazolinecarboxamide], the melting point lay in the range of 237 to 239 °C.

The molecule `O=C(Nc1ccccn1)c1nc(Nc2ccc3[nH]ncc3c2)c2ccccc2n1` [Example 135, 4-(1H-indazol-5-ylamino)-N-(2-pyridinyl)-2-quinazolinecarboxamide] gave a melting point of 297 to 300 °C.

For `O=C(Nc1cnc2ccccc2c1)c1nc(Nc2ccc3[nH]ncc3c2)c2ccccc2n1` [Example 136, 4-(1H-indazol-5-ylamino)-N-(3-quinolinyl)-2-quinazolinecarboxamide], the melting point lay within 249 to 252 °C.

Molecule `CNC(=O)c1nc(Nc2ccc3[nH]ncc3c2)c2ccccc2n1` [Example 137, 4-(1H-indazol-5-ylamino)-N-methyl-2-quinazolinecarboxamide] had a melting point of 283 to 286 °C.

`Cc1nc(Nc2ccc3[nH]ncc3c2)c2ccccc2n1` [Example 139, N-(1H-indazol-5-yl)-N-(2-methyl-4-quinazolinyl)amine] came in with a melting point of 282 to 288 °C.
